Laboratory results published in patent US10130710B2 (priority 2014, dated 2018).
Where a name gives a salt, the structure may show the parent alone.

Assay type: physicochemical
Details: Log10(concentration in octanol phase/concentration in aqueous phase)
From the text: Incidentally, the octanol-water partition coefficient herein is obtained by adding a target component to be measured into a flask charged with n-octanol and an aqueous buffer of pH 7 or water, shaking the resultant, and performing calculation, in accordance with the following equation, based on active ingredient concentrations in respective phases. Octanol-water partition coefficient=Log10(concentration in octanol phase/concentration in aqueous phase)

Compared with CC(C)CCCCCCCOC(=O)C(C)(C)C [isodecyl neopentanoate], CC(C)CCCCCCOC(=O)CCCCCC(C)C [isononyl isononanoate] is higher in water-octanol partition coefficient: 5.9 for the first, 6.5 for the second.

Going from CCCCCCCCCCCCCC(=O)OC(C)C [isopropyl myristate] to CC(C)CCCCCCCCCCOC(=O)CCCCCC(C)C [isotridecyl isononanoate], the water-octanol partition coefficient rises from 7.2 to 9.2.

Going from CC12CC3CC(C)(C1)CC(N)(C3)C2 [memantine hydrochloride, reference compound] to CCCc1nc(C)c2c(=O)[nH]c(-c3cc(S(=O)(=O)N4CCN(CC)CC4)ccc3OCC)nn12 [verdenafil hydrochloride hydrate, reference compound], the water-octanol partition coefficient falls from 0.3 to 0.0.

Compared with CC(C)CCCCCC(=O)OCC(C)(C)COC(=O)CCCCCC(C)C [neopentyl glycol diisononanoate], CC(C)CCCC(C)CCCC(C)CCCCC(C)CCCC(C)CCCC(C)C (centres unmarked) [squalane] is higher in water-octanol partition coefficient: 7.2 for the first, 14.7 for the second.

Compared with CCCCCCCCCCCCCC(=O)OCC(CCCCCCCC)CCCCCCCCCC (centres unmarked) [octyldodecyl myristate], CCCCC(CC)C(=O)OCC(COC(=O)C(CC)CCCC)OC(=O)C(CC)CCCC (centres unmarked) [triethylhexanoin] is lower in water-octanol partition coefficient: 16.0 for the first, 8.9 for the second.

Compound O.O.O.O.O.O=P([O-])(O)C(O)(Cc1cccnc1)P(=O)(O)O.O=P([O-])(O)C(O)(Cc1cccnc1)P(=O)(O)O.[Na+].[Na+] [risedronate monosodium hemipentahydrate, reference compound] has a water-octanol partition coefficient of −5.0.
